Test results published in ChEMBL document CHEMBL3885881, “DrugMatrix”.

Organism: Rattus norvegicus
Experiment: DrugMatrix - Regimen: Daily Repeat
Assay type: toxicity, organism-based, Sprague-Dawley
Set-up: regimen Daily Repeat, gender Male, age 6-8 weeks
Settings: in vivo, po, 0 mg/kg, route oral GAVAGE, dose level Control, vehicle .5 % CMC; for ABSOLUTE BASOPHIL / ABSOLUTE EOSINOPHIL / ABSOLUTE LYMPHOCYTE / ABSOLUTE MONOCYTE / ABSOLUTE SEGMENTED NEUTROPHIL / BASOPHIL / EOSINOPHIL / ERYTHROCYTE COUNT / HEMATOCRIT / HEMOGLOBIN / LEUKOCYTE COUNT / LYMPHOCYTE / MEAN CORPUSCULAR HEMOGLOBIN / MEAN CORPUSCULAR HEMOGLOBIN CONCENTRATION / MEAN CORPUSCULAR VOLUME / MONOCYTE / NEUTROPHIL / NUCLEATED RED BLOOD CELLS / PLATELET COUNT: tissue Blood; for ALANINE AMINOTRANSFERASE / ALBUMIN / ALKALINE PHOSPHATASE / ASPARTATE AMINOTRANSFERASE / BLOOD UREA NITROGEN / CARBON DIOXIDE / CHLORIDE / CHOLESTEROL / CREATINE PHOSPHOKINASE / CREATININE / GLUCOSE / LACTATE DEHYDROGENASE / LIPASE / PHOSPHORUS / POTASSIUM / SODIUM / TOTAL BILIRUBIN / TOTAL PROTEIN / URIC ACID: tissue Plasma

COc1ccccc1OCC(O)COC(N)=O (stereo unspecified) [METHOCARBAMOL]
ABSOLUTE BASOPHIL (72 h, time 3 day): 0 CELLS/uL | ABSOLUTE EOSINOPHIL (72 h, time 3 day): 171.33 CELLS/uL | ABSOLUTE LYMPHOCYTE (72 h, time 3 day): 13776.5 CELLS/uL | ABSOLUTE MONOCYTE (72 h, time 3 day): 180.83 CELLS/uL | ABSOLUTE SEGMENTED NEUTROPHIL (72 h, time 3 day): 1121.33 CELLS/uL | BASOPHIL (72 h, time 3 day): 0% | EOSINOPHIL (72 h, time 3 day): 1% | ERYTHROCYTE COUNT (72 h, time 3 day): 5.56 x10E6/uL | HEMATOCRIT (72 h, time 3 day): 34.75% | HEMOGLOBIN (72 h, time 3 day): 13.68 G/DL | LEUKOCYTE COUNT (72 h, time 3 day): 15.25 x10E3/uL | LYMPHOCYTE (72 h, time 3 day): 90.17% | MEAN CORPUSCULAR HEMOGLOBIN (72 h, time 3 day): 24.6 pg | MEAN CORPUSCULAR HEMOGLOBIN CONCENTRATION (72 h, time 3 day): 39.4 G/DL | MEAN CORPUSCULAR VOLUME (72 h, time 3 day): 62.48 fL | MONOCYTE (72 h, time 3 day): 1.17% | NEUTROPHIL (72 h, time 3 day): 7.67% | NUCLEATED RED BLOOD CELLS (72 h, time 3 day): 0 /100WBC | PLATELET COUNT (72 h, time 3 day): 1342 x10E3/uL | ALANINE AMINOTRANSFERASE (72 h, time 3 day): 49.67 u/L | ALBUMIN (72 h, time 3 day): 4.15 G/DL | ALKALINE PHOSPHATASE (72 h, time 3 day): 346.83 u/L | ASPARTATE AMINOTRANSFERASE (72 h, time 3 day): 108.17 u/L | BLOOD UREA NITROGEN (72 h, time 3 day): 17.33 mg/dL | CARBON DIOXIDE (72 h, time 3 day): 25 mmol/L | CHLORIDE (72 h, time 3 day): 100.83 MEQ/L | CHOLESTEROL (72 h, time 3 day): 66.83 mg/dL | CREATINE PHOSPHOKINASE (72 h, time 3 day): 788 u/L | CREATININE (72 h, time 3 day): 0.18 mg/dL | GLUCOSE (72 h, time 3 day): 151.67 mg/dL | LACTATE DEHYDROGENASE (72 h, time 3 day): 982.5 u/L | LIPASE (72 h, time 3 day): 10.33 u/L | PHOSPHORUS (72 h, time 3 day): 11.23 mg/dL | POTASSIUM (72 h, time 3 day): 6.37 MEQ/L | SODIUM (72 h, time 3 day): 141.02 MEQ/L | TOTAL BILIRUBIN (72 h, time 3 day): 0.18 mg/dL | TOTAL PROTEIN (72 h, time 3 day): 5.9 G/DL | URIC ACID (72 h, time 3 day): 1.8 mg/dL | ABSOLUTE BASOPHIL (120 h, time 5 day): 0 CELLS/uL | ABSOLUTE EOSINOPHIL (120 h, time 5 day): 69 CELLS/uL | ABSOLUTE LYMPHOCYTE (120 h, time 5 day): 13632.83 CELLS/uL | ABSOLUTE MONOCYTE (120 h, time 5 day): 139.83 CELLS/uL | ABSOLUTE SEGMENTED NEUTROPHIL (120 h, time 5 day): 1225 CELLS/uL | BASOPHIL (120 h, time 5 day): 0% | EOSINOPHIL (120 h, time 5 day): 0.33% | ERYTHROCYTE COUNT (120 h, time 5 day): 5.52 x10E6/uL | HEMATOCRIT (120 h, time 5 day): 33.98% | HEMOGLOBIN (120 h, time 5 day): 13.22 G/DL | LEUKOCYTE COUNT (120 h, time 5 day): 15.07 x10E3/uL | LYMPHOCYTE (120 h, time 5 day): 90.83% | MEAN CORPUSCULAR HEMOGLOBIN (120 h, time 5 day): 23.95 pg | MEAN CORPUSCULAR HEMOGLOBIN CONCENTRATION (120 h, time 5 day): 38.9 G/DL | MEAN CORPUSCULAR VOLUME (120 h, time 5 day): 61.53 fL | MONOCYTE (120 h, time 5 day): 0.83% | NEUTROPHIL (120 h, time 5 day): 8% | NUCLEATED RED BLOOD CELLS (120 h, time 5 day): 0 /100WBC | PLATELET COUNT (120 h, time 5 day): 1196 x10E3/uL | ALANINE AMINOTRANSFERASE (120 h, time 5 day): 49.17 u/L | ALBUMIN (120 h, time 5 day): 4.2 G/DL | ALKALINE PHOSPHATASE (120 h, time 5 day): 352.33 u/L | ASPARTATE AMINOTRANSFERASE (120 h, time 5 day): 89.67 u/L | BLOOD UREA NITROGEN (120 h, time 5 day): 18 mg/dL | CARBON DIOXIDE (120 h, time 5 day): 27.67 mmol/L | CHLORIDE (120 h, time 5 day): 101 MEQ/L | CHOLESTEROL (120 h, time 5 day): 72.83 mg/dL | CREATINE PHOSPHOKINASE (120 h, time 5 day): 417.5 u/L | CREATININE (120 h, time 5 day): 0.18 mg/dL | GLUCOSE (120 h, time 5 day): 150.5 mg/dL | LACTATE DEHYDROGENASE (120 h, time 5 day): 517.33 u/L | LIPASE (120 h, time 5 day): 9 u/L | PHOSPHORUS (120 h, time 5 day): 11.87 mg/dL | POTASSIUM (120 h, time 5 day): 6.57 MEQ/L | SODIUM (120 h, time 5 day): 143.62 MEQ/L | TOTAL BILIRUBIN (120 h, time 5 day): 0.2 mg/dL | TOTAL PROTEIN (120 h, time 5 day): 6.08 G/DL | URIC ACID (120 h, time 5 day): 1.45 mg/dL
